Consider 16 compounds from US8283353B2, “Fused ring compound and use thereof” (Takeda Pharmaceutical Company Limited, priority 2009, dated 2012).

In one experiment the target is T1, human AT1 receptor (Homo sapiens, UniProt P30556).
T1 construct: expressed in transfected cells; membrane fraction
T1 sequence (P30556 1-359): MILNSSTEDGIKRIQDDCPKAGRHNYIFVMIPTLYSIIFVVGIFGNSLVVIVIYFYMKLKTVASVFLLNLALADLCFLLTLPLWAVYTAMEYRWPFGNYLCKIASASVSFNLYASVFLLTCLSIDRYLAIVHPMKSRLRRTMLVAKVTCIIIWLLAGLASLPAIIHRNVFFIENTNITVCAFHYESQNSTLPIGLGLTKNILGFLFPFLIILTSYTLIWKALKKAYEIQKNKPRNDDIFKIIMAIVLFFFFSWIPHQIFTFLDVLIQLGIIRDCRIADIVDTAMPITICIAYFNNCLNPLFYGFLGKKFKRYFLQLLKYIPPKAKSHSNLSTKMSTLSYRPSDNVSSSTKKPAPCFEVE
Description: AT1 receptor antagonistic activity: [125I]-angiotensin II binding assay on human AT1 receptor-expressing CHO-K1 cellular membrane fraction. Particulars: 22.5 pM [125I]-angiotensin II, 1 hr room temperature. In short, it runs like this: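 Competition binding used radiolabelled angiotensin II on stably transfected CHO-K1 membrane fractions in Tris pH 7.4/MgCl2 buffer, optionally containing 0.3 mg/mL fatty acid-free BSA, 1 hr at room temperature. Filtration onto GF/C separated bound tracer, and nonspecific binding was measured with candesartan.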

For the next experiment, the target named is T2, human PPARγ (Homo sapiens, UniProt P37231).
T2 construct: expressed in transfected cells
T2 sequence (P37231 1-477 isoform P37231-2): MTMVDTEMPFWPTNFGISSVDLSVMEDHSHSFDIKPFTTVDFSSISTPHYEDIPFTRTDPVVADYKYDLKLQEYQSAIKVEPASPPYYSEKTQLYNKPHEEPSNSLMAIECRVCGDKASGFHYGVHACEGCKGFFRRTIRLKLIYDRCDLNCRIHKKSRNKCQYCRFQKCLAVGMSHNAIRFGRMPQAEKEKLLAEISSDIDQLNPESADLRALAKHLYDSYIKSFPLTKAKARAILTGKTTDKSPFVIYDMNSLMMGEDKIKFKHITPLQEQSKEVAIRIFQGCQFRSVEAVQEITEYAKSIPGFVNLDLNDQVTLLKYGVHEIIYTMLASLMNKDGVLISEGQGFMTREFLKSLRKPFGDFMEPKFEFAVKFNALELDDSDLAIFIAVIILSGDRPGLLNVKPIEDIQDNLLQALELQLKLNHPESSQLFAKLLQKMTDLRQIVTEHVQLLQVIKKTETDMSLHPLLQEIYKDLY
T2 sequence (P19793 1-462 partner): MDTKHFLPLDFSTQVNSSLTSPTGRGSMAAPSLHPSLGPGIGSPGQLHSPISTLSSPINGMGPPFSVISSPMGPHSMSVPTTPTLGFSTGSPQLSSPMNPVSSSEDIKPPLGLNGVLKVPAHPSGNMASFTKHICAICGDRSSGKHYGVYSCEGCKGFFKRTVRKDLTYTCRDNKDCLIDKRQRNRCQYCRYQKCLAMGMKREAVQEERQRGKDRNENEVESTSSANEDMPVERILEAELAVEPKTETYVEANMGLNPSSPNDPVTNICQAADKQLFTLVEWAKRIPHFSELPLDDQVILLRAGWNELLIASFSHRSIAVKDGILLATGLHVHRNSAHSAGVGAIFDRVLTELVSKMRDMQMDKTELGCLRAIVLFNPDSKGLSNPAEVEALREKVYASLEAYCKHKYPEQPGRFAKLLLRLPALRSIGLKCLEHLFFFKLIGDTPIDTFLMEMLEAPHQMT
Description: PPARγ agonistic activity: luciferase reporter assay in PPARγ:RXRα:4ERPP/CHO-K1 cells. It counts as cell-based. Particulars: CHO-K1, test compound 10^−6 M; luciferase activity of control compound X (1 μM) = 100%, non-administration group = 0%. In short, it runs like this: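 CHO-K1 cells stably carrying hPPARγ/RXRα and a 4ERPP luciferase reporter, dosed with test compound for 1 day at 37 °C in Ham's F12 with 0.1% fatty acid-free BSA. Luciferase read by luminescence; activity given as % of 1 μM control compound X (100%) versus untreated (0%).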
(A reporter such as luciferase makes a cellular process visible.)

`CCCc1c(Cc2ccc(-c3ccccc3-c3noc(=O)[nH]3)cc2)c(=O)n([C@H]2CC[C@H](OCC#N)CC2)c2ncnn12` [Example 210, ({trans-4-[5-oxo-6-{[2′-(5-oxo-4,5-dihydro-1,2,4-oxadiazol-3-yl)biphenyl-4-yl]methyl}-7-propyl[1,2,4]triazolo[1,5-a]pyrimidin-4(5H)-yl]cyclohexyl}oxy)acetonitrile]: the IC50 on human AT1 receptor is 1.9 nM. Further, the activation at 1 µM at human PPARγ stood at 33%.
In the same order, the values of `CCCCc1c(Cc2ccc(-c3ccccc3-c3noc(=O)[nH]3)cc2)c(=O)n([C@H]2CC[C@H](OCC(C)(C)O)CC2)c2ccnn12` [Example 434, 7-butyl-4-[trans-4-(2-hydroxy-2-methylpropoxy)cyclohexyl]-6-{[2′-(5-oxo-4,5-dihydro-1,2,4-oxadiazol-3-yl)biphenyl-4-yl]methyl}pyrazolo[1,5-a]pyrimidin-5(4H)-one] are 2.1 nM and 25%.
Taken in the same sequence, the figures for `CCCc1c(Cc2ccc(-c3ccccc3-c3noc(=O)[nH]3)cc2)c(=O)n([C@H]2CC[C@]3(CCC(CO)O3)CC2)c2ncnn12` (stereo partly drawn) [Example 391, 4-[(5S,8S)-2-(hydroxymethyl)-1-oxaspiro[4.5]dec-8-yl]-6-{[2′-(5-oxo-4,5-dihydro-1,2,4-oxadiazol-3-yl)biphenyl-4-yl]methyl}-7-propyl[1,2,4]triazolo[1,5-a]pyrimidin-5(4H)-one] were 3.1 nM and 28%.
At human AT1 receptor, `CCCc1c(Cc2ccc(-c3ccccc3-c3noc(=O)[nH]3)cc2)c(=O)n([C@H]2CC[C@H](OC(C)C(C)O)CC2)c2ncnn12` (stereo partly drawn) [Example 299, 4-[trans-4-(2-hydroxy-1-methylpropoxy)cyclohexyl]-6-{[2′-(5-oxo-4,5-dihydro-1,2,4-oxadiazol-3-yl)biphenyl-4-yl]methyl}-7-propyl[1,2,4]triazolo[1,5-a]pyrimidin-5(4H)-one] had an IC50 of 1.8 nM. Further, the activation at 1 µM at human PPARγ was found to be 19%.
In the same order, the values of `CCCc1c(Cc2ccc(-c3ccccc3-c3noc(=O)[nH]3)cc2)c(=O)n([C@H]2CC[C@]3(CC2)CC(C)=NO3)c2ncnn12` [Example 204, 4-[(5R,8R)-3-methyl-1-oxa-2-azaspiro[4.5]dec-2-en-8-yl]-6-{[2′-(5-oxo-4,5-dihydro-1,2,4-oxadiazol-3-yl)biphenyl-4-yl]methyl}-7-propyl[1,2,4]triazolo[1,5-a]pyrimidin-5(4H)-one] are 2.7 nM and 26%.
In the same order, the values of `CCCc1c(Cc2ccc(-c3ccccc3-c3noc(=O)[nH]3)cc2)c(=O)n(C2CCC3(CC2)OC(=O)C(C)(C)O3)c2ncnn12` (centres unmarked) [Example 290, 4-(2,2-dimethyl-3-oxo-1,4-dioxaspiro[4.5]dec-8-yl)-6-{[2′-(5-oxo-4,5-dihydro-1,2,4-oxadiazol-3-yl)biphenyl-4-yl]methyl}-7-propyl[1,2,4]triazolo[1,5-a]pyrimidin-5(4H)-one] are 3.2 nM and 25%.
`CCCc1c(Cc2ccc(-c3ccccc3-c3noc(=O)[nH]3)cc2)c(=O)n(C2CCC(=NOC(C)C)CC2)c2ncnn12` (centres unmarked) [Example 193, 4-{4-[(1-methylethoxy)imino]cyclohexyl}-6-{[2′-(5-oxo-4,5-dihydro-1,2,4-oxadiazol-3-yl)biphenyl-4-yl]methyl}-7-propyl[1,2,4]triazolo[1,5-a]pyrimidin-5(4H)-one]: the IC50 at human AT1 receptor is 2 nM. In addition, the activation at 1 µM on human PPARγ was found to be 28%.
In the same order, the values of `CCCc1c(Cc2ccc(-c3ccccc3-c3noc(=O)[nH]3)cc2)c(=O)n([C@H]2CC[C@H](OCC3(C#N)CCC3)CC2)c2ncnn12` [Example 227, 1-[({trans-4-[5-oxo-6-{[2′-(5-oxo-4,5-dihydro-1,2,4-oxadiazol-3-yl)biphenyl-4-yl]methyl}-7-propyl[1,2,4]triazolo[1,5-a]pyrimidin-4(5H)-yl]cyclohexyl}oxy)methyl]cyclobutanecarbonitrile] are 2.5 nM and 23%.
`CCCc1c(Cc2ccc(-c3ccccc3-c3noc(=O)[nH]3)cc2)c(=O)n([C@H]2CC[C@@H](Oc3ccon3)CC2)c2ncnn12` [Example 281, 4-[cis-4-(isoxazol-3-yloxy)cyclohexyl]-6-{[2′-(5-oxo-4,5-dihydro-1,2,4-oxadiazol-3-yl)biphenyl-4-yl]methyl}-7-propyl[1,2,4]triazolo[1,5-a]pyrimidin-5(4H)-one] had an IC50 on human AT1 receptor of 1.8 nM. Besides, the activation at 1 µM at human PPARγ was 42%.
In the same order, the values of `CCCc1c(Cc2ccc(-c3ccccc3-c3noc(=O)[nH]3)cc2F)c(=O)n(C2CCOCC2)c2ncnn12` [Example 117, 6-{[3-fluoro-2′-(5-oxo-4,5-dihydro-1,2,4-oxadiazol-3-yl)biphenyl-4-yl]methyl}-7-propyl-4-(tetrahydro-2H-pyran-4-yl)[1,2,4]triazolo[1,5-a]pyrimidin-5(4H)-one] are 1.3 nM and 18%.
In the same order, the values of `CCCc1c(Cc2ccc(-c3ccccc3-c3noc(=O)[nH]3)cc2)c(=O)n([C@H]2CC[C@H](Oc3ccc(C(C)(C)O)cc3)CC2)c2ncnn12` [Example 280, 4-{trans-4-[4-(1-hydroxy-1-methylethyl)phenoxy]cyclohexyl}-6-{[2′-(5-oxo-4,5-dihydro-1,2,4-oxadiazol-3-yl)biphenyl-4-yl]methyl}-7-propyl[1,2,4]triazolo[1,5-a]pyrimidin-5(4H)-one] are 1.9 nM and 16%.
Taken in the same sequence, the figures for `CCCc1c(Cc2ccc(-c3ccccc3-c3noc(=O)[nH]3)cc2)c(=O)n(C2CCC3(CC2)OCC(C)(C)O3)c2ncnn12` (centres unmarked) [Example 179, 4-(2,2-dimethyl-1,4-dioxaspiro[4.5]dec-8-yl)-6-{[2′-(5-oxo-4,5-dihydro-1,2,4-oxadiazol-3-yl)biphenyl-4-yl]methyl}-7-propyl[1,2,4]triazolo[1,5-a]pyrimidin-5(4H)-one] were 1.9 nM and 41%.
On human AT1 receptor, `CCCc1c(Cc2ccc(-c3ccccc3-c3noc(=O)[nH]3)cc2)c(=O)n([C@H]2CC[C@H](OCC(C)=O)CC2)c2ncnn12` [Example 215, 6-{[2′-(5-oxo-4,5-dihydro-1,2,4-oxadiazol-3-yl)biphenyl-4-yl]methyl}-4-[trans-4-(2-oxopropoxy)cyclohexyl]-7-propyl[1,2,4]triazolo[1,5-a]pyrimidin-5(4H)-one] gave an IC50 of 1.9 nM. Moreover, the activation at 1 µM on human PPARγ was 24%.
Taken in the same sequence, the figures for `CCCc1c(Cc2ccc(-c3ccccc3-c3noc(=O)[nH]3)cc2F)c(=O)n(Cc2ccc(OC)cc2OC)c2ncnn12` [Example 37, 4-(2,4-dimethoxybenzyl)-6-{[3-fluoro-2′-(5-oxo-4,5-dihydro-1,2,4-oxadiazol-3-yl)biphenyl-4-yl]methyl}-7-propyl[1,2,4]triazolo[1,5-a]pyrimidin-5(4H)-one] were 2.5 nM and 33%.
Taken in the same sequence, the figures for `CCCc1c(Cc2ccc(-c3ccccc3-c3noc(=O)[nH]3)cc2)c(=O)n(C2CCC3(CC2)OCC(CO)O3)c2ncnn12` (centres unmarked) [Example 294, 4-[2-(hydroxymethyl)-1,4-dioxaspiro[4.5]dec-8-yl]-6-{[2′-(5-oxo-4,5-dihydro-1,2,4-oxadiazol-3-yl)biphenyl-4-yl]methyl}-7-propyl[1,2,4]triazolo[1,5-a]pyrimidin-5(4H)-one] were 2.1 nM and 31%.
Taken in the same sequence, the figures for `CCCc1c(Cc2ccc(-c3ccccc3-c3noc(=O)[nH]3)cc2F)c(=O)n([C@H]2CC[C@@H](O)CC2)c2ncnn12` [Example 166, 6-{[3-fluoro-2′-(5-oxo-4,5-dihydro-1,2,4-oxadiazol-3-yl)biphenyl-4-yl]methyl}-4-(cis-4-hydroxycyclohexyl)-7-propyl[1,2,4]triazolo[1,5-a]pyrimidin-5(4H)-one] were 1.3 nM and 22%.

What is called IC50 is the point on the concentration scale where inhibition reaches its midpoint. A lower IC50 goes with inhibition by little substance.
